The results in this text go back to ChEMBL document CHEMBL5375992, “Design and Development of IKZF2 and CK1α Dual Degraders” (J Med Chem, 2023).

The target of data set [1] is T1, Cereblon/Casein kinase I alpha (Homo sapiens) (UniProt P48729+Q96SW2). Nature of the data set: Protac activity at CRBN/CK1alpha (unknown origin) transfected in HEK293T cells at 100 nM incubated for 24 hrs by flow cytometry analysis relative to control. The class given is cell-based. On the technique in general: A flow cytometer gives signals particle by particle.

Data set [2] is described as follows: Metabolic stability in mouse liver microsomes assessed as half life preincubated with NADPH and UDPGA for 5 mins followed by compound addition and measured upto 60 mins by LC-MS/MS analysis. Type of data set: ADME, Microsome.
The nature of data set [3]: Metabolic stability in human liver microsomes assessed as half life preincubated with NADPH and UDPGA for 5 mins followed by compound addition and measured upto 60 mins by LC-MS/MS analysis. Type of data set: ADME, Microsome.
Data set [4] can be described thus: Metabolic stability in mouse liver microsomes assessed as intrinsic clearance preincubated with NADPH and UDPGA for 5 mins followed by compound addition and measured upto 60 mins by LC-MS/MS analysis. The class given is ADME, Microsome. The settings on record: read-out: CLH. (In general: Microsomes from liver hold many membrane-bound enzymes, among them those of drug oxidation.)

Data set [5] addresses T2, Protein cereblon/Zinc finger protein Helios (Homo sapiens) (UniProt Q96SW2+Q9UKS7). Kind of data set: Protac activity at CRBN/IKZF2 (unknown origin) transfected in HEK293T cells at 100 nM incubated for 24 hrs by flow cytometry analysis relative to control. The class given is cell-based.
Data set [6] can be described thus: Metabolic stability in human liver microsomes assessed as intrinsic clearance preincubated with NADPH and UDPGA for 5 mins followed by compound addition and measured upto 60 mins by LC-MS/MS analysis. Type of data set: ADME, Microsome. The settings on record: read-out: CLH.
Data set [7] addresses T3, Protein cereblon/Eukaryotic peptide chain release factor GTP-binding subunit ERF3A (Homo sapiens) (UniProt Q96SW2+P15170). Nature of the data set: Protac activity at CRBN/GSPT1 (unknown origin) transfected in HEK293T cells at 100 nM incubated for 24 hrs by flow cytometry analysis relative to control. Type of data set: cell-based.
The nature of data set [8]: Solubility of compound in DMSO. Type of data set: physicochemical.
Data set [9] has as its target T4, Cereblon/Ikaros (Homo sapiens) (UniProt Q96SW2+Q13422). Nature of the data set: Protac activity at CRBN/IKZF1 (unknown origin) transfected in HEK293T cells at 100 nM incubated for 24 hrs by flow cytometry analysis relative to control. Type of data set: cell-based.
The subject of data set [10] is OCI-Ly3. Kind of data set: Cytotoxicity against human OCILY3 cells incubated for 5 days by MTT assay. Type of data set: functional, cell-based. Particulars: time 5.0 day.
The subject of data set [11] is A2780. Nature of the data set: Cytotoxicity against human A2780 cells incubated for 5 days by MTT assay. Particulars: time 5.0 day. Type of data set: functional, cell-based. (In general: Tetrazolium dyes change colour on reduction, which living cells bring about.)
Data set [12] addresses T4, Cereblon/Ikaros (Homo sapiens). Nature of the data set: Protac activity at CRBN/IKZF1 (unknown origin) transfected in HEK293T cells at 1 uM incubated for 24 hrs by flow cytometry analysis relative to control. The class given is cell-based.
Data set [13] addresses T2, Protein cereblon/Zinc finger protein Helios (Homo sapiens). Kind of data set: Protac activity at CRBN/IKZF2 (unknown origin) transfected in HEK293T cells at 1 uM incubated for 24 hrs by flow cytometry analysis relative to control. Type of data set: cell-based.
The target in data set [14] is T3, Protein cereblon/Eukaryotic peptide chain release factor GTP-binding subunit ERF3A (Homo sapiens). Nature of the data set: Protac activity at CRBN/GSPT1 in human NCI-H1048 cells at 10 to 100 nM incubated for 24 hrs by Western blotting analysis. Type of data set: cell-based. Particulars: dose 10-100 nM.
Data set [15] has the same target. Nature of the data set: Protac activity at CRBN/GSPT1 (unknown origin) transfected in HEK293T cells at 1 uM incubated for 24 hrs by flow cytometry analysis relative to control. Type of data set: cell-based.
The target in data set [16] is T1, Cereblon/Casein kinase I alpha (Homo sapiens). Nature of the data set: Protac activity at CRBN/CK1alpha (unknown origin) transfected in HEK293T cells at 1 uM incubated for 24 hrs by flow cytometry analysis relative to control. The class given is cell-based.
Data set [17] concerns the target T2, Protein cereblon/Zinc finger protein Helios (Homo sapiens). Kind of data set: Protac activity at CRBN/IKZF2 in human MOLM-13 cells assessed as relative ratio at 25 uM incubated for 24 hrs by Western blotting analysis relative to DMSO. The class given is cell-based.
The target in data set [18] is T4, Cereblon/Ikaros (Homo sapiens). Nature of the data set: Protac activity at CRBN/IKZF1 in human MOLM-13 cells at 25 uM incubated for 24 hrs by Western blotting analysis relative to control. The class given is cell-based.
The target is the same in data set [19]. Kind of data set: Protac activity at CRBN/IKZF1 in human MOLM-13 cells assessed as relative ratio at 25 uM incubated for 24 hrs by Western blotting analysis relative to DMSO. The class given is cell-based.
The target of data set [20] is T2, Protein cereblon/Zinc finger protein Helios (Homo sapiens). Nature of the data set: Protac activity at CRBN/IKZF2 in human MOLM-13 cells at 25 uM incubated for 24 hrs by Western blotting analysis relative to control. The class given is cell-based.

In brackets after ≈: the same amount, converted by molar mass. Activity calls are given as the source filed them. The rule behind the calls is not given here.

T1 sequence (P48729 2-337 limits assumed): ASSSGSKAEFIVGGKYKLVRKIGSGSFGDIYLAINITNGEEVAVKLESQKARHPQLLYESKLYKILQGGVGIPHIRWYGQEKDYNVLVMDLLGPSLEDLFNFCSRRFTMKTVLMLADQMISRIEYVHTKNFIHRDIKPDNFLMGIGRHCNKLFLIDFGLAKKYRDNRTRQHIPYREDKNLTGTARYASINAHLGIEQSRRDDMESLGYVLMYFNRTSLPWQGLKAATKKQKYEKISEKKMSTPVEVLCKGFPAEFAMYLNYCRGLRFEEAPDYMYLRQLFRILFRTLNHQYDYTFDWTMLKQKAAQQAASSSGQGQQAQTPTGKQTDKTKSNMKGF
T1 sequence (Q96SW2 whole entry partner): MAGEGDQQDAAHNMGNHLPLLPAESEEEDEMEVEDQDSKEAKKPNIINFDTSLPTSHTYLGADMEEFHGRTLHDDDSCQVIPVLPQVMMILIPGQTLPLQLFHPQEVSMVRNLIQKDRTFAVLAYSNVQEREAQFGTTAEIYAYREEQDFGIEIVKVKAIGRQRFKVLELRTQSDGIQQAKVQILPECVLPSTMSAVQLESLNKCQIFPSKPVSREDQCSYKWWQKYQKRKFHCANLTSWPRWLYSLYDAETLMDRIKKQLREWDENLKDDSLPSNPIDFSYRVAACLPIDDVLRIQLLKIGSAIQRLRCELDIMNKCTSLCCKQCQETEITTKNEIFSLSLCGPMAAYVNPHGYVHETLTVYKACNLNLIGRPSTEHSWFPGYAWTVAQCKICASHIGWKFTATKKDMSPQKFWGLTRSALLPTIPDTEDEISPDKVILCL
T2 sequence (Q96SW2 whole entry, looked up): as the sequence (Q96SW2 whole entry partner) above
T2 sequence (Q9UKS7 whole entry, looked up): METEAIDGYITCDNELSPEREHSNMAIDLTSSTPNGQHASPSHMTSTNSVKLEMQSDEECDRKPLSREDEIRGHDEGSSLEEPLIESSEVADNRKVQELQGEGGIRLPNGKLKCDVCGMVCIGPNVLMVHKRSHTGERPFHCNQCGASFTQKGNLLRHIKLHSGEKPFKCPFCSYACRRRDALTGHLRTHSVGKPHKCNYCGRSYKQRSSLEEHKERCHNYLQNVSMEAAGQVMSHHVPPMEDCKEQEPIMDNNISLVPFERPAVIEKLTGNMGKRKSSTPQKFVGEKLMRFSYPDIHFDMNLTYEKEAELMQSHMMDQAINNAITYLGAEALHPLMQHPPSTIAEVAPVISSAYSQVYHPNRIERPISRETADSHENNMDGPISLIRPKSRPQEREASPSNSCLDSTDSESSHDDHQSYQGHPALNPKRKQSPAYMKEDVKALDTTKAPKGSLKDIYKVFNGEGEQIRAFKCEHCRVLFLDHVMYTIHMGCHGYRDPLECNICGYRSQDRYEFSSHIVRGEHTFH
T3 sequence (P15170 whole entry, looked up): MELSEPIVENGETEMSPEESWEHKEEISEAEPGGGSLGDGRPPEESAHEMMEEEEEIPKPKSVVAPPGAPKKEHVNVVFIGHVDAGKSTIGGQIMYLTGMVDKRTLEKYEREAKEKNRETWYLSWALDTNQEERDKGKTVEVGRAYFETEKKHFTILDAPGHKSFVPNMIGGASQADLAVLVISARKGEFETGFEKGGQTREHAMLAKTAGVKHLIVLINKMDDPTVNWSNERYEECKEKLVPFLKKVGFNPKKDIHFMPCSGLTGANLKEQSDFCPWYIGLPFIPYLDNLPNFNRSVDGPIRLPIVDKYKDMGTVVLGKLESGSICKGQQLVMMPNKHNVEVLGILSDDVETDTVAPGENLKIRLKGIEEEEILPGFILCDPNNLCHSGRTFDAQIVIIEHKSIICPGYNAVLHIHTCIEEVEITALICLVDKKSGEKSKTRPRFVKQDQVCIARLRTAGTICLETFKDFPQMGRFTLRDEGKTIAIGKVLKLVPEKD
T3 sequence (Q96SW2 whole entry, looked up): as the sequence (Q96SW2 whole entry partner) above

Broadly, the half-life is the time in which the quantity being followed falls by half. Regarding `COc1ccc2cc(C(=O)Nc3ccc4c(c3)CN(C3CCC(=O)NC3=O)C4=O)ccc2n1` (configuration not stated), the Activity was determined as 68% in [1] and 89% in data set [5]. In addition, the half-life in data set [2] was more than 4.25 h; in [3], 0.268 h. Also, the microsomal CLint was less than 5.4 µL/min/mg in data set [4] and 108 µL/min/mg in data set [6].
Consider `COc1ccc2cc(C(=O)Nc3ccc4c(c3)CN(C3CCC(=O)NC3=O)C4=O)cnc2c1` (configuration not stated), for which the Activity in data set [1] was determined as 62%; in [5], 73%. Moreover, the half-life in data set [2] is more than 4.25 h; in data set [3] it was 0.338 h. For the same compound, the microsomal CLint is less than 5.4 µL/min/mg in data set [4] and 68.4 µL/min/mg in [6].
Consider `CCCCOc1ccc2cc(C(=O)Nc3ccc4c(c3)CN(C3CCC(=O)NC3=O)C4=O)ccc2c1` (configuration not stated), for which the Activity worked out at 70% in data set [1] and 81% in data set [5]. In addition, the half-life in data set [2] and in data set [3] was more than 4.25 h each time. Besides, the microsomal CLint in data set [4] and in data set [6] was less than 5.4 µL/min/mg in each case.
`COc1ccc2cc(C(=O)Nc3ccc4c(c3)CN(C3CCC(=O)NC3=O)C4=O)ncc2c1` (configuration not stated): the values for the Activity in [1] and in data set [5] were 61% and 68%, respectively. The half-life in [2] is 3.48 h; in [3], 0.04 h. The results for the microsomal CLint in [4] and in [6] were 6.6 µL/min/mg and 584 µL/min/mg, respectively.
Usually solubility stands for the concentration that dissolves in the medium under given conditions. On to `COc1cc(Br)cc2c1OCC(C(=O)Nc1ccc3c(c1)CN(C1CCC(=O)NC1=O)C3=O)=C2` (configuration not stated), for which the Activity turned out to be 65% in data set [1], 2% in data set [7], 13% in data set [9] and 74% in [5]. Also, the solubility in [8] (DMSO, read-out: solubility) worked out at 50 mM (≈ 26.3 mg/mL).
In the case of `Nc1cccc2c1CN(C1CCC(=O)NC1=O)C2=O` (configuration not stated) [LENALIDOMIDE], the half-life in [2] and in data set [3] was more than 6 h each time.
Take `O=C1CCC(N2Cc3cc(NC(=O)c4cc5ccccc5o4)ccc3C2=O)C(=O)N1` (configuration not stated): the Activity in data set [1] is 62%; in [7], 2%; in data set [9], 13%; in data set [5], 80%. Further, in data set [8], the solubility was 25 mM (≈ 10.1 mg/mL).
In the case of `COc1ccc2c(c1)C=C(C(=O)Nc1ccc3c(c1)CN(C1CCC(=O)NC1=O)C3=O)CO2` (configuration not stated), the Activity in data set [1] stood at 66%; in data set [7], 9%; in data set [9], 16%; in data set [5], 75%. The solubility in data set [8] (DMSO, read-out: solubility) is 50 mM (≈ 22.4 mg/mL).
On to `CC(C)Oc1ccc2cc(C(=O)Nc3ccc4c(c3)CN(C3CCC(=O)NC3=O)C4=O)ccc2c1` (configuration not stated), for which the Activity in [1] was 70%; in data set [5], 81%. Further, the half-life in data set [2] and in [3] was more than 4.25 h in each case. For the same compound, the microsomal CLint in data set [4] and in [6] was less than 5.4 µL/min/mg in each case.
Consider `CCOc1ccc2cc(C(=O)Nc3ccc4c(c3)CN(C3CCC(=O)NC3=O)C4=O)ccc2c1` (configuration not stated), for which the Activity in data set [1] is 71%; in [5], 80%. The half-life in data set [2] and in data set [3] was more than 4.25 h in each case. The microsomal CLint in [4] and in [6] was less than 5.4 µL/min/mg throughout.
As to `O=C1CCC(N2Cc3cc(NC(=O)C4=Cc5cc(Br)cc(Br)c5OC4)ccc3C2=O)C(=O)N1` (configuration not stated), the Activity in data set [1] came out at 47%; in data set [7], 5%; in [9] it was 12%; in data set [5], 49%. Moreover, in data set [8] (DMSO, read-out: solubility), the solubility is 50 mM (≈ 28.8 mg/mL).
Regarding `O=C1CCC(N2Cc3cc(NC(=O)C4=Cc5ccc(OC(F)(F)F)cc5OC4)ccc3C2=O)C(=O)N1` (configuration not stated), the Activity in data set [1] was 66%; in [7], 6%; in [9], 11%; in data set [5] it was 85%. Besides, the solubility in [8] (DMSO, read-out: solubility) is 50 mM (≈ 25.1 mg/mL).
Regarding `COc1ccc2c(c1)OCC(C(=O)Nc1ccc3c(c1)CN(C1CCC(=O)NC1=O)C3=O)=C2` (configuration not stated), the Activity in data set [1] came to 60%; in data set [7], 9%; in [9], 4%; in [5], 57%. In addition, the solubility in data set [8] (DMSO, read-out: solubility) was 50 mM (≈ 22.4 mg/mL).
Consider `COc1ccc2nc(C(=O)Nc3ccc4c(c3)CN(C3CCC(=O)NC3=O)C4=O)ccc2c1` (configuration not stated), for which the Activity in data set [1] came to 69%; in [5] it was 87%. Also, the half-life was determined as 0.398 h in data set [2] and 0.265 h in data set [3]. The microsomal CLint in [4] was found to be 57.9 µL/min/mg; in data set [6], 87.4 µL/min/mg.
In the case of `O=C1CCC(N2Cc3cc(NC(=O)C4=Cc5ccc(C(F)(F)F)cc5OC4)ccc3C2=O)C(=O)N1` (configuration not stated), the Activity in data set [1] is 65%; in data set [7] it was 3%; in [9] it was 8%; in data set [5], 70%. Also, the solubility in data set [8] (DMSO, read-out: solubility) came out at 50 mM (≈ 24.3 mg/mL).
Regarding `[2H]C([2H])([2H])Oc1ccc2cc(C(=O)Nc3ccc4c(c3)CN(C3CCC(=O)NC3=O)C4=O)ccc2c1` (configuration not stated), the half-life in [2] was more than 4.25 h; in data set [3] it was 0.08 h. Moreover, the figures for the microsomal CLint in data set [4] and in data set [6] were less than 5.4 µL/min/mg and 290 µL/min/mg, respectively.
Take `COc1cc(C(=O)O)ccc1NC(=O)[C@@H]1N[C@@H](CC(C)(C)C)[C@](C#N)(c2ccc(Cl)cc2F)[C@H]1c1cccc(Cl)c1F`: the outcome in data set [10] and in data set [11] was inactive.
As for `O=C1CCC(N2Cc3cc(NC(=O)C4=Cc5ccc(Br)cc5OC4)ccc3C2=O)C(=O)N1` (configuration not stated), the Activity in data set [1] amounted to 62%; in [7] it was 22%; in data set [9] it was 13%; in data set [5], 80%. Moreover, the solubility in data set [8] (DMSO, read-out: solubility) was 50 mM (≈ 24.8 mg/mL).
With `COc1ccc2cc(C(=O)Nc3ccc4c(c3)CN(C3CCC(=O)NC3=O)C4=O)ccc2c1` (configuration not stated), the Activity in data set [12] stood at 9%; in [13], 94%; in data set [1], 70%; in data set [1] (tested as the 2H-labelled form) it was 52%; in data set [7], 8%; in [15], 18%. Moreover, the Activity in data set [16] is 70%; in [9] it was 7%; in data set [5], 90%; in [5] (tested as the 2H-labelled form) it was 70%. The half-life in data set [2] was determined as 3.13 h. Moreover, the result in data set [14] was Active. The values for the microsomal CLint in data set [4] and in [6] were 7.4 µL/min/mg and 362 µL/min/mg, respectively.
As for `O=C1CCC(N2Cc3cc(NC(=O)c4ccc5ccccc5c4)ccc3C2=O)C(=O)N1` (configuration not stated), the Ratio in data set [17] came to 0.27; in data set [19], 0.5. Moreover, in data set [18], the result was inactive. Further, the half-life in data set [2] and in data set [3] was more than 4.25 h each time. For the same compound, the microsomal CLint in data set [4] and in [6] was less than 5.4 µL/min/mg each time. Moreover, the result in [20] was Active.
